Reference: patent US20080161348A1, “PTX3-GENE EXPRESSION INHIBITOR” (KOWA CO., LTD., priority 2002, published 2008)

Legend:
[1] = system: PTX3 gene; conditions: constant expression in synovial cells; Clin. Exp. Immunol., 119(1), 196-202 (2000); cited from earlier work
[2] = system: PTX3 gene; test: PTX3 gene expression analysis by GeneChip array in HUVEC; type: cell-based, human; conditions: 8 hours after addition, control 1113.0
Protocol: (§1) Two days after inoculation of normal human umbilical vein endothelial cells (HUVEC) or human coronary artery smooth muscle cells (HCASMC) at 3×10^5 cells/10 cm dish, pitavastatin calcium or atorvastatin calcium was added to 1.1 μmol/L and 6.6 μmol/L, respectively. Dimethyl sulfoxide, a solvent for both of the active ingredients, was added to a control (final concentration: 0.0066 v/v %). Eight hours after the addition, total RNA was extracted with “ISOGEN” (trade mark, product of NIPPON GENE CO., LTD.). The following procedures was conducted in accordance with the procedures manual of Affymetrix. Inc. Described specifically, mRNA was isolated from the above-obtained total RNA, and based on the mRNA, cDNA was synthesized. Further, biotin-labeled cRNA was synthesized by in vitro transcription. Subsequent to purification, the biotin-labeled cRNA was subjected to fragmentation by heat treatment to prepare fragmented cRNA for use in a gene expression analysis.
(§2) Gene expression analysis method: The fragmented CRNA was poured into “Hugene Human FL Array” (trade name, product of Affymetrix, Inc.), and hybridization was conducted at 45° C. for 16 hours. […] The information was analyzed by “GENECHIP SOFTWARE” (trade name, product of Affymetrix, Inc.) to compare expression levels.

[3] = system: PTX3 gene; test: PTX3 gene expression by RT-PCR and agarose gel electrophoresis in HCASMC; type: cell-based, human; conditions: 1 μmol/L and 10 μmol/L, both 8 hours later and 24 hours later
Protocol: (§3) Two days after inoculation of HUVEC at 3×10^5 cells/10 cm dish, pitavastatin calcium or atorvastatin calcium was added to 1.1 μmol/L and 6.6 μmol/L, respectively. To ascertain possible concentration dependency of PTX3 gene expression suppressing effect of pitavastatin, pitavastatin calcium was also added to 1 μmol/L and 10 μmol/L upon elapsed time of 2 days after inoculation of HUCEC or HCASMC at 3×10^5 cells/10 cm dish. To controls under the respective conditions, dimethyl sulfoxide, a solvent for both of the active ingredients, was added (final concentration: 0.0066 v/v %) Eight or 24 hours after the addition, total RNA was extracted with “ISOGEN” (trade mark, product of NIPPON GENE CO., LTD.). The total RNA was subjected to RT-PCR in a manner known per se in the art, and amplified DNA fragments were subjected to agarose gel electrophoresis to compare expression levels. • Reaction conditions and the like for PT-PCR:
(§4) PT reaction: Conducted using “RNA PCR Core Kit” (trade name, product of Roche Molecular Systems, Inc.).
PCR: Using “Expanded™ High Fidelity PCR System” (trade name, manufactured of Boehringer Mannheim AG), thermal cycling was conducted through 25 cycles according to the following schemes: 95° C. for 1 minute—57° C. for 1 minute—72° C. for 1 minute. […]

[4] = system: PTX3 gene; test: PTX3 gene expression by RT-PCR and agarose gel electrophoresis in HUVEC; type: cell-based, human; conditions: both 8 hours later and 24 hours later
Protocol: as §3, §4
PCR: Using “Expanded™ High Fidelity PCR System” (trade name, manufactured of Boehringer Mannheim AG), thermal cycling was conducted through 25 cycles according to the following schemes: 95° C. for 1 minute—57° C. for 1 minute—72° C. for 1 minute. Incidentally, as PCR primers, the followings were used in sets: SEQ ID No:1 (Forward) and SEQ ID No: 2 (Reverse) in the case of PTX3; base SEQ ID No:3 (Forward) and SEQ ID No: 4 (Reverse) in the case of GAPDH.

[5] = system: PTX3 gene; test: PTX3 gene expression analysis by GeneChip array in HCASMC; type: cell-based, human; conditions: 8 hours after addition, control 1028.3
Protocol: as §1, §2

In the case of TGF-β, the “expression of PTX3 gene in synovial cells of a rheumatoid arthritis patient” value [1] is given as “suppressed”.
With `O=C(O)C[C@H](O)C[C@H](O)/C=C/c1c(C2CC2)nc2ccccc2c1-c1ccc(F)cc1` [pitavastatin calcium, (3R,5S, 6 E)-7-[2-cyclopropyl-4-(4-fluorophenyl)-3-quinolyl]-3,5-dihydroxy-6-heptenoic acid] the “expression of PTX3 gene in HUVEC” value ([2]; 1.1 μmol/L) was 32.7, the “concentration dependency of PTX3 gene expression suppression in HCASMC (RT-PCR)” value [3] was “concentration-dependently suppressed” and the “concentration dependency of PTX3 gene expression suppression in HUVEC (RT-PCR)” value ([4]; 1 μmol/L and 10 μmol/L) was “concentration-dependently suppressed”. The “expression of PTX3 gene in HUVEC compared with the control (RT-PCR)” value ([4]; 1.1 μmol/L) was “suppressed” and the “expression of PTX3 gene in HCASMC” value ([5]; 1.1 μmol/L) was 452.5.
In the case of “IFN-γ: inteferon-γ (IFN-γ), known from literature to suppress PTX3 gene expression”, the “expression of PTX3 gene in synovial cells of a rheumatoid arthritis patient” value [1] is given as “suppressed”.
In the case of `CC(C)c1c(C(=O)Nc2ccccc2)c(-c2ccccc2)c(-c2ccc(F)cc2)n1CC[C@@H](O)C[C@@H](O)CC(=O)O` [atorvastatin calcium, (3R,5R)-7-[2-(4-fluorophenyl)-5-isopropyl-3-phenyl-4-phenylcarbamonyl-1H-pyrrol-1-yl]-3,5-dihydroxyheptanoic acid], the “expression of PTX3 gene in HUVEC” value ([2]; 6.6 μmol/L) is reported as 39.2, the “expression of PTX3 gene in HUVEC compared with the control (RT-PCR)” value ([4]; 6.6 μmol/L) is reported as “suppressed” and the “expression of PTX3 gene in HCASMC” value ([5]; 6.6 μmol/L) is reported as 432.1.
